Results on three molecules are retold here after PMC3006138, “Fexinidazole – A New Oral Nitroimidazole Drug Candidate Entering Clinical Development for the Treatment of Sleeping Sickness” (PLoS Neglected Tropical Diseases, 2010).

Series [1] in a line: Hepatocyte intrinsic clearance and metabolite profile. As to conditions: male, CD-1, mouse, cryopreserved hepatocytes, 1 µM. The format is in vitro ADME, mouse. The method, then:
(§1) Fexinidazole was incubated with cryopreserved hepatocytes from male CD-1 mice, male Sprague Dawley rats, male beagle dogs, male cynomolgus monkeys, and from pooled white or African-American human donor samples (purchased commercially), at concentrations of 1 µM and 10 µM. […] The incubated samples were analyzed by LC-MS after extraction into acetonitrile.
(§2) A quality control analysis of fexinidazole was performed via 1H-NMR in DMSO and LC- […]
(§3) provided by the Swiss Tropical Institute (Basel, Switzerland).
(§4) Reagents and solvents were of analytical grade and obtained from Sigma-Aldrich (St. Louis, […]
(§5) Cryopreserved hepatocytes from the male CD1 mouse, lot CSI; male Sprague Dawley rat, lot LPL; male beagle dog, lot BWX; male cynomolgus monkey, lot EHH; and pooled human samples, lot MJI, were purchased from In Vitro Technologies Inc (Baltimore, Maryland, […]
(§6) 5.4. In vitro Incubations
(§7) On the day of the experiment a 10 mM stock solution of fexinidazole in DMSO was prepared and, within 3 hours, aliquots of this freshly prepared solution, after suitable dilution, were added to the incubation matrix, to reach fexinidazole final concentrations of 1 and 10 µM. The final percentage of DMSO was 0.01% in the incubation samples for the […]
(§8) On the day of experiment, the cryopreserved hepatocytes were thawed following the detailed instructions provided by the supplier.
(§9) The number of viable cells was determined using a Trypan Blue exclusion method.
(§10) 5.4.1. Intrinsic Clearance Study […]
(§11) µM with mouse, rat, dog, monkey and human hepatocytes (300000 cells/mL for the mouse and 1 million cells/mL for the other species) in a final incubation volume of 0.75 mL […]
(§12) Incubations were performed in duplicate in a 48-well plate under shaking. Sampling was performed using an automatic liquid handling system (Multiprobe II EX, Packard). At 0, 1, 5, 10, 15, 20, 30, 60 and 120 minutes, 50 µL aliquots of the incubates were taken, then 80 µL of ice-cold acetonitrile and 20 µL of 1 µM warfarin in acetonitrile (internal standard) were added, and samples centrifuged at 2000 rpm for 20 min. The supernatant was analyzed by LC-MS/MS. […]
(§13) the medium alone at t = 0 and 120 minutes.
(§14) For the determination of phase I and phase II activity of hepatocytes, 7-ethoxycoumarin (7-EC) 1 µM, and 7-hydroxycoumarin (7-HC) 30 µM were used as positive controls and incubated under the same conditions as fexinidazole. Aliquots of incubates were taken at 0, 10, 20, 30, 60 and 120 minutes and processed as fexinidazole samples.
(§15) 5.4.2. Metabolite Profile Study
(§16) For metabolite profiling, fexinidazole was incubated at a concentration of 10 µM with mouse, rat, dog, monkey and human hepatocytes (300000 cells/mL for the mouse and 1 million cells/mL for the other species) in a final incubation volume of 2 mL Leibovitz L-15 […]
(§17) Aliquots of the incubation samples were taken at t = 0, 30 and 120 minutes; the metabolism was stopped by the addition of an equal volume of cold acetonitrile and the samples centrifuged at 1500 rpm for 20 min. The supernatant was stored at -20°C until analysis. Control incubations were performed with the compound in the medium alone […]
(§18) 5.5. Analysis of Samples for Intrinsic Clearance Determination
(§19) The analysis of the samples for intrinsic clearance determination was performed by an LC-MS/MS method, using the following conditions:
(§20) HPLC Equipment and Conditions
(§21) HPLC system Agilent 1100 binary pump (Agilent, Palo Alto, USA)
(§22) Autosampler CTC Pal (Alfatech, San Jose, USA)
(§23) Analytical column Guard Column SB-C8 4.6 x 12.5 mm, 5 µm (Zorbax)
(§24) Column temperature ambient
(§25) Mobile phase A 10 mM ammonium formate pH 4.0: acetonitrile (95:5, v:v)
(§26) Mobile phase B 10 mM ammonium formate pH 4.0: acetonitrile (5:95, v:v) […]
(§27) Gradient conditions Step Total time (min) flow (µL/min) %A % B […]
(§28) MS Equipment and Conditions
(§29) Mass spectrometer API 4000 Triple Quadrupole (MDS-Sciex, Toronto, […]
(§30) Source Turbo Ion Spray (TIS)
(§31) Ion mode Positive for fexinidazole and 7-EC.
(§32) Negative for 7-HC, 7-HC sulphate and 7-HC glucuronide.

Experiment in series [2]: as above
The class given is in vitro ADME, human. Particulars: human, cryopreserved pooled hepatocytes, 1 µM. The method, then:
as §1, §2, §3, §4, §5, §6, §7, §8, §9, §10, §11, §12, §13, §14, §15, §16, §17, §18, §19, §20, §21, §22, §23, §24, §25, §26, §27, §28, §29, §30, §31, §32

Experiment in series [3]: as above
As to conditions: male, cynomolgus, cynomolgus monkey, cryopreserved hepatocytes, 1 µM. The format is in vitro ADME, cynomolgus monkey. The method, then:
as §1, §2, §3, §4, §5, §6, §7, §8, §9, §10, §11, §12, §13, §14, §15, §16, §17, §18, §19, §20, §21, §22, §23, §24, §25, §26, §27, §28, §29, §30, §31, §32

Experiment in series [4]: as above
The format is in vitro ADME, rat. As to conditions: male, Sprague Dawley, rat, cryopreserved hepatocytes, 1 µM. The method, then:
as §1, §2, §3, §4, §5, §6, §7, §8, §9, §10, §11, §12, §13, §14, §15, §16, §17, §18, §19, §20, §21, §22, §23, §24, §25, §26, §27, §28, §29, §30, §31, §32

Experiment in series [5]: as above
The format is in vitro ADME, dog. As to conditions: male, beagle, dog, cryopreserved hepatocytes, 1 µM. The method, then: as §1, §2, §3, §4, §5, §6, §7, §8, §9, §10, §11, §12, §13, §14, §15, §16, §17, §18, §19, §20, §21, §22, §23, §24, §25, §26, §27, §28, §29, §30, §31, §32

Experiment in series [6]: as above
Particulars: human. The format is in vitro ADME, human. The method, then: as §1
Fexinidazole sulfoxide, lot 1106-I-0170, 99.3% purity, and fexinidazole sulfone, lot 1106-I-0171, 99.9% purity, were provided by the Sponsor.
Cryopreserved hepatocytes of five single donors, lots EHI, REL, KSE […]
ZIJ and MRS, were purchased from In Vitro Technologies Inc (Baltimore, Maryland, USA).
The certificates of analysis are reported in Appendix 1.
as §4
7.5. In Vitro Incubations
as §7
The cryopreserved hepatocytes were thawed according to the supplier’s procedure and the number of viable cells was determined using the Trypan Blue exclusion method. Viabilities were 92% for lot EHI, 89% for lot REL, 82% for lot KSE, 86% for lot ZIJ and 86% for lot MRS in the intrinsic clearance study. In the metabolite profile study viabilities were 91% for lot EHI, 90% for lot REL, 85% for lot KSE, 84% for lot ZIJ and 87% for lot MRS.
Afterwards, the same amount of viable cells for each donor were pooled and used for the incubations of fexinidazole.
7.5.1. Intrinsic Clearance Study […]
µM with pooled human hepatocytes (1 million cells/mL) in a final incubation volume of 1 mL Leibovitz L-15 medium, at 37°C. Incubations were performed in duplicate in a 48-well plate under shaking. Sampling was performed using an automatic liquid handling system (Multiprobe II EX, Packard). At 0, 1, 5, 10, 15, 20, 30, 60 and 120 minutes, 50 µL aliquots of the incubates were taken, then 80 µL of ice-cold acetonitrile and 20 µL of 1 µM warfarin in acetonitrile (internal standard) were added, and samples centrifuged at 2000 rpm for 20 min. The supernatant was analyzed by LC-MS/MS. […]
The chemical stability of fexinidazole was checked by incubating the compound at 37°C in the medium alone at t = 0 and 120 minutes.
For the determination of phase I and phase II activities of hepatocytes, 7-ethoxycoumarin (7-ETC) 1 µM, and 7-hydroxycoumarin (7-HC) 30 µM were used as positive controls and incubated under the same conditions as fexinidazole. Aliquots of incubates were taken at 0, 1, 5, 10, 15, 20, 30, 60 and 120 minutes and processed as fexinidazole samples.
7.5.2. Metabolite Profile Study
For metabolite profiling, fexinidazole was incubated at a concentration of 10 µM with pooled human hepatocytes (1 million cells/mL) in a final incubation volume of 2 mL Leibovitz L-15 medium, at 37°C. Aliquots of the incubation samples were taken at t = 0, 30 and 120 minutes; the metabolism was stopped by the addition of an equal volume of cold acetonitrile and the samples centrifuged at 1100 rpm for 20 min. The supernatant was stored at -20°C until analysis. Control incubations were performed with the compound in the medium alone for 120 minutes.
7.6. Analysis of the Samples of Intrinsic Clearance Study
as §19, §20
HPLC system 1100 binary pump (Agilent, Palo Alto, USA)
Autosampler 2777 (Waters)
as §23, §24, §25, §26, §27

The test system of a further series is L-6 rat myoblast cells. The series can be described thus: Cytotoxicity assay. The format is cell-based. Particulars: 72 h, read-out: IC50. The method, then:
(§33) 10 µL of Alamar Blue was added for the final 3 h to determine viability. […] The IC50 values were calculated from the sigmoidal inhibition curves. For cytotoxicity, 4×10^4/mL L-6 rat skeletal myoblast cells were used, and incubations and assessments carried out as above.

A further series in a line: in vivo. As to conditions: male, NMRI, mouse, po, 200 mg/kg/day.
Series [7] concerns T. b. gambiense (STIB 930). The series can be described thus: In vitro trypanocidal assay (Alamar Blue). Particulars: Trypanosoma brucei, 72 h; read-out: IC50. The format is cell-based, Trypanosoma brucei gambiense. The method, then:
Parasites were cultured with or without the test article at a concentration of 3×10^4/mL in Minimal Essential Medium, according to Baltz et al., with the following modifications: 0.2 mM 2-mercaptoethanol, 1 mM Na-pyruvate, 0.5 mM hypoxanthine and 15% heat inactivated horse serum at 37°C in 5% CO2 in 96-well microtitre plates for 72 h. 10 µL of Alamar Blue was added for the final 3 h to determine viability. The assay was assessed by reading the fluorescence in each well at an excitation wavelength of 536 nm and at an emission wavelength of 588 nm. The IC50 values were calculated from the sigmoidal inhibition curves. For cytotoxicity, 4×10^4/mL L-6 rat skeletal myoblast cells were used, and incubations and assessments carried out as above.
(In general: The colour change of resazurin is a common sign of viable cells or microbes.)

The test system of series [8] is T. b. rhodesiense (STIB 900). In words: In vitro trypanocidal assay (Alamar Blue). Particulars: Trypanosoma brucei, 72 h, read-out: IC50. The class given is cell-based, Trypanosoma brucei rhodesiense. The method, then:
as §33

A short description of series [9]: One-electron reduction potential by pulse radiolysis. The format is physicochemical. The method, then:
One-electron reduction potentials were determined by pulse radiolysis following an established procedure.

The half-life is the time in which the quantity being followed falls by half. The term IC50 denotes the midpoint of a concentration-inhibition curve. The AUC(0-t) is exposure summed from dosing to a finite time, without extrapolation to infinity. Read a low AUC(0-t) as low exposure. The Cmax is the peak of the concentration-time curve. As usually defined, the Tmax is the time from dosing to the highest level.

“And” between values parts separate entries of the source, which are not always exact repeats. Equal values may be shown once. Read-outs that look alike come from different tables or passages of the source.

Protocol for in vivo: The study was conducted according to the study protocol [1].
gavage daily for 5 consecutive days at a dose of 200 mg/kg in a 5 % tween 80/ 0.5 %
Formulation Preparation and Concentration Check
were prepared according to the procedure already developed [2]; a sufficient volume of each
suspension was prepared in order to support the 5-day repeated oral administration. The
suspensions were stored at +4°C. The supportive stability data for the Fexinidazole
suspension after 7 days at +4°C was performed.
a specific, not validated, HPLC-UV method [2]. Three samples were analyzed for each
Sample Collection and Handling
About 0.05-0.07 mL of blood/sampling time were taken from the saphenous vein using
heparinized tubes (pre-cooled in an ice/water bath) and were centrifuged at 10000g for 3
minutes at 4°C. The separated plasma was stored at -80°C until analysis. Blood was taken at
validated LC-MS-MS methods.
Pharmacokinetic Calculations
Pharmacokinetic evaluation was carried out using a non-compartmental approach with the
aid of the Watson package (v. 6.4.0.04, Thermo Fisher Scientific, Waltham, MA, USA).
For the calculations, pre-dose concentrations of both compounds were set equal to zero.
After both compounds, on Day 5, Cmax and tmax were read from the raw plasma data as the
coordinates of the highest measured concentration. The area under plasma concentration vs.
time curve to finite time, AUC0-t(last), was determined by the linear trapezoidal rule up to the
last detectable concentration. The half-life of the terminal phase, t1/2,z, was determined by
linear regression analysis of the natural-log concentration vs. time curve, where t1/2,z =
ln(2)/slope of the regression line.
Descriptive statistics (mean ± SD, %CV) were reported for plasma concentrations and
pharmacokinetic parameters sorted by compound.
reported to three significant figures.
Plasma concentrations of sulphoxide and sulphone Fexinidazole metabolites were determined
by a LC-MS-MS method. The lower limit of the bioanalytical method was 5 ng/mL (run 1)
(v. 6.4.0.04, Thermo Fisher Scientific, Waltham, MA, USA).
Pharmacokinetic evaluations of the sulphone and sulphoxide metabolites were carried out
using non-compartmental approach with the aid of the Watson package (v. 6.4.0.04, Thermo
Fisher Scientific, Waltham, MA, USA).
After both doses, for the calculations, the pre-dose concentrations of the metabolites were set
Cmax and tmax were read from raw data as the coordinates of the highest measured

As to `CCOc1ccc2ccc(=O)oc2c1` [7-ethoxycoumarin, reference compound], the half-life at 1 µM came to 2.6 min in series [1]; 4.8 min in series [2]; 2.5 min in [3]; 13.2 min in series [4]; 1.7 min in series [5]; 6.4 min in [6]. The CLint scaled at 1 µM in series [1] (read-out: CLint in vitro) was found to be 2380 mL/min/kg; in series [2] (read-out: CLint in vitro), 345 mL/min/kg; in [3] (read-out: CLint in vitro) it was 1480 mL/min/kg; in series [4] (read-out: CLint in vitro) it was 251 mL/min/kg; in series [5] (read-out: CLint in vitro), 3110 mL/min/kg; in [6] (read-out: CLint in vitro), 258 mL/min/kg. The hepatocyte CLint at 1 µM in [1] (read-out: CLint in vitro) was found to be 901 µL/min/1e6 cells; in [2] (read-out: CLint in vitro) it was 144 µL/min/1e6 cells; in series [3] (read-out: CLint in vitro), 272 µL/min/1e6 cells; in series [4] (read-out: CLint in vitro), 52.4 µL/min/1e6 cells; in series [5] (read-out: CLint in vitro), 405 µL/min/1e6 cells; in series [6] (read-out: CLint in vitro), 108 µL/min/1e6 cells.
On to `CC1CS(=O)(=O)CCN1/N=C/c1ccc([N+](=O)[O-])o1` (centres unmarked) [Nifurtimox], for which, in the series on L-6 rat myoblast cells, the IC50 was 25 µg/mL and 87 µM. Further, in “in vivo”, the exposure AUC(0-t) is 45700 ± 5880 ng·h/mL, the maximum concentration (Cmax) amounted to 9250 ± 765 ng/mL, the Tmax turned out to be 90 ± 79.2 min and the half-life is 187 ± 87 min. Also, the IC50 in series [7] was 0.31 µg/mL and 1.08 µM. In addition, in [8], the half-maximal inhibitory concentration (IC50) is 0.4 µg/mL and 1.44 µM.
For the molecule `Cc1ncc([N+](=O)[O-])n1CCO` [metronidazole, reference compound], the “single electron redox potential” value in series [9] is −516 mV.
